Reference: publication PMC7108782, “Direct interaction of metastasis-inducing S100P protein with tubulin causes enhanced cell migration without changes in cell adhesion” (Biochemical Journal, 2020)
Entries after “also recorded” stand apart in the source; their conditions may differ.

Experiments:
Dicytostelial cells = conditions: ref [40]; cited from earlier work
Source text: It was reported that complete disruption of MTs in CHO and HeLa cells retained normal migration rates, but the resultant movement became more random and reduced overall travel distance. […] Well-established MTs may increase the rigidity of cells as well as their polarity and play a constraining role to limit a cell's ability of moving and changing direction. […] However, unlike the scratch wound- ...

HeLa cells = assay: Boyden chamber cell migration with MT regulators, HeLa; conditions: 20 nM taxol, 24 h
MCF-7 cells = assay: Boyden chamber cell migration with MT regulators, MCF-7; conditions: 20 nM taxol, 24 h, MCF-7
Rama 37 cells = assay: Boyden chamber cell migration with MT regulators, Rama 37; conditions: 20 nM taxol, 24 h
COS-7 S10 cells = assay: Boyden chamber cell migration, S100P-inducible COS-7; assay type: cell-based, monkey; conditions: for effect on S100P-enhanced migration: COS-7 S10, 20 nM taxol or 5 µM colchicine, 24 h
Source text: (§1) Cell migration rate (%) = M/G × 100.

Rama 37-T25 cells = assay: S100P-enhanced cell migration, Rama 37-T25; assay type: cell-based, rat; conditions: Rama 37-T25; 20 nM taxol or 5 µM colchicine, 24 h
Source text: as §1

cell migration = conditions: almost all cell types tested, ref [17]; cited from earlier work
Source text: It was reported that complete disruption of MTs in CHO and HeLa cells retained normal migration rates, but the resultant movement became more random and reduced overall travel distance.

HeLa-A3 cells = assay: S100P-enhanced cell migration, HeLa-A3; assay type: cell-based, human; conditions: HeLa-A3; 20 nM taxol or 5 µM colchicine, 24 h
Source text: as §1

COS-7 cells = assay: Boyden chamber cell migration, COS-7 parental; assay type: cell-based, monkey
Source text: as §1

S100P - α,β-tubulin = assay: SPR inhibition of S100P binding to α,β-tubulin-coated chip by peptides; parameters: species or system human; conditions: 20 µM peptide, 1 µM S100P
Experimental: For SPR binding assays, α,β-tubulin proteins described earlier were immobilised on a carboxymethylated dextran surface of a CM5 chip using BS^3 for use in Biocore X100. Recombinant S100P produced as described previously was used as a ligand in different concentrations at 20, 50, 100, 200, 1000, 2000 nM for calculation of the equilibrium dissociation constant (Kd) from the association/dissociation rate constants and from the extent of binding near equilibrium (Supplementary Table S2), as described previously. To detect the effects of tubulin peptides on the interaction of tubulin, different concentrations of tagged and untagged peptides were mixed with 1 µM S100P first and the mixtures were then applied to the tubulin-coated chip. The relative changes in kinetics and binding extents with different peptides were calculated using software provided by the manufacturer.

S100P = target: T1, S100P (Homo sapiens, UniProt P25815); assay: Isothermal titration calorimetry (ITC) of tubulin peptides with S100P; assay type: binding; conditions: NMR and ITC
T1 construct: made in house
T1 sequence (P25815 1-95): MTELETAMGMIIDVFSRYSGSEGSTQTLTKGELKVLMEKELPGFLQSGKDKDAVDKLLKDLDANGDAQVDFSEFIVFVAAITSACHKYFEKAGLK
Experimental: Measurements were conducted using an ITC-200 instrument (Microcal) as previously described. ITC titrations were performed in 20 mM MES pH 6.1, 50 mM NaCl, 1.0 mM TCEP and 5 mM CaCl2 (for Ca^2+-form of S100P) at 25°C. Due to low solubility, peptide solutions at concentrations of 10–400 µM were placed in the cell and titrated with S100P at concentrations of 0.5–3 mM, depending on the peptide concentration. Data were integrated and fitted to a single site binding equation using Origin 7 software which was included with the ITC module (Malvern Microcal, Malvern, U.K.).

αβ-tubulin [1] = target: αβ-tubulin (UniProt P68363); assay: SPR; αβ-tubulin immobilised on a CM5 chip (Biacore X100), S100P in solution; 150 mM NaCl, 0.5 mM CaCl2, single cycle; Kd from the association and dissociation rate constants
αβ-tubulin [2] = target: αβ-tubulin (UniProt P68363); assay: SPR; αβ-tubulin immobilised on a CM5 chip, S100P in solution; 500 mM NaCl (printed 500M), 0.5 mM CaCl2, multiple cycles; Kd from the association and dissociation rate constants
αβ-tubulin [3] = target: αβ-tubulin (UniProt P68363); assay: SPR; αβ-tubulin immobilised on a CM5 chip, S100P in solution; 150 mM NaCl, 0.5 mM CaCl2, multiple cycles; Kd from the association and dissociation rate constants
αβ-tubulin [4] = target: αβ-tubulin (UniProt P68363); assay: SPR; αβ-tubulin immobilised on a CM5 chip, S100P in solution; 300 mM NaCl (printed 300M), 0.5 mM CaCl2, multiple cycles; Kd from the extent of binding at or near equilibrium
αβ-tubulin [5] = target: αβ-tubulin (UniProt P68363); assay: SPR; αβ-tubulin immobilised on a CM5 chip, S100P in solution; 300 mM NaCl (printed 300M), 0.5 mM CaCl2, multiple cycles; Kd from the association and dissociation rate constants
[6] = target: T2, α,β-tubulin immobilised on a chip (human | , UniProt Q71U36 1-451; P07437 1-444); assay: SPR; α,β-tubulin immobilised on CM5 chip; S100P in solution; Kd from the ratio of forward and backward rate constants; conditions: both partners purified
[7] = target: T2, α,β-tubulin immobilised on a chip; assay: SPR; α,β-tubulin immobilised on CM5 chip (BS3), Biacore X100; S100P 20-2000 nM in solution; 0.15 M NaCl, 200 µM CaCl2; multiple-cycle; Kd from extent of binding near equilibrium; conditions: both partners purified
[8] = target: T2, α,β-tubulin immobilised on a chip; assay: SPR; α,β-tubulin immobilised on CM5 chip; S100P in solution; high salt buffer (0.5 M NaCl) with 200 µM CaCl2; multiple cycles; Kd at or near equilibrium; conditions: both partners purified
[9] = target: DIC peptide, the 26mer starting with DIC from β-tubulin; assay: ITC; peptide (10-400 µM) in the cell titrated with S100P (0.5-3 mM); 25°C; 20 mM MES pH 6.1, 50 mM NaCl, 1.0 mM TCEP, 5 mM CaCl2; single site fit
[10] = target: VNA peptide from the C terminus of α-tubulin (human); assay: as above
[11] = target: T2, α,β-tubulin immobilised on a chip; assay: SPR; α,β-tubulin immobilised on CM5 chip; S100P in solution; single-cycle analysis; Kd near equilibrium; conditions: both partners purified
[12] = target: T2, α,β-tubulin immobilised on a chip; assay: cell-based or functional assay
Recombinant S100P [13] = target: T3, Recombinant S100P (UniProt P25815 1-95, 15N-labelled in the NMR experiments); assay: SPR; competition: 20 µM peptide mixed with 1 µM S100P, applied to the α,β-tubulin-coated chip; extent of binding relative to S100P alone (100%)
T3 chain: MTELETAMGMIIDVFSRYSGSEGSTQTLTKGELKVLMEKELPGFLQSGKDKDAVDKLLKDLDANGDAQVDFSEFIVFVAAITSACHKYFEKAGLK

Recombinant S100P [14] = target: T3, Recombinant S100P; assay: ITC

T2 sequence (P68363 whole entry, chain 1 of 2): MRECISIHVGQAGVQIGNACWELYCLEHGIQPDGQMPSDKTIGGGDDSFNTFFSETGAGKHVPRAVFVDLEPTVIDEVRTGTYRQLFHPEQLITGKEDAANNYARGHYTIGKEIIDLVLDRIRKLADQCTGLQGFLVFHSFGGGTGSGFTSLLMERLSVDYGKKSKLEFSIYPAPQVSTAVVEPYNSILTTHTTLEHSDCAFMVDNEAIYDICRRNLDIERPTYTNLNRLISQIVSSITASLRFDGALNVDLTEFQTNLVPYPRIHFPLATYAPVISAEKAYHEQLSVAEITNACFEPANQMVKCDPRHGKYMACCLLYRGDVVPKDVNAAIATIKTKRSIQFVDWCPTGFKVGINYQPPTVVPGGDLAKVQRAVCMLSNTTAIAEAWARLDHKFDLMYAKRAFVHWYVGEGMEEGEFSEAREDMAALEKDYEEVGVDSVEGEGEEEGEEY
T2 sequence (P07437 whole entry, chain 2 of 2): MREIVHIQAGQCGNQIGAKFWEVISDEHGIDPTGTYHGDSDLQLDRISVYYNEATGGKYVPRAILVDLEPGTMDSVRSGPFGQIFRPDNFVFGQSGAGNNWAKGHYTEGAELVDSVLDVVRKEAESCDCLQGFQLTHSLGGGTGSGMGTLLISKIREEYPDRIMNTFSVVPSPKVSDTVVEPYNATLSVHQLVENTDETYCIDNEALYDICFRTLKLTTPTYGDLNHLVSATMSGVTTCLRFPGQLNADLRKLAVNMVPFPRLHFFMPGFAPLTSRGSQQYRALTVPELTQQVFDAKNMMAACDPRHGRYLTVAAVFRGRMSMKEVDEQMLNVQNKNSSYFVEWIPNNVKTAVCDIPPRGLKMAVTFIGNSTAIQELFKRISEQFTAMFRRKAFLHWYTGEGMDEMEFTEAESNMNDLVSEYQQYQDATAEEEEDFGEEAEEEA

## COC(=O)Nc1nc2ccc(C(=O)c3cccs3)cc2[nH]1 [nocodazole]
Dicytostelial cells
  effect on cell migration: could significantly increase cell migration and shape changes, but reduced chemotaxis; also recorded: dramatically enhance the non-directional (random) movements

## CC(=O)O[C@H]1C(=O)[C@@]2(C)[C@H]([C@H](OC(=O)c3ccccc3)[C@]3(O)C[C@H](OC(=O)[C@H](O)[C@@H](NC(=O)c4ccccc4)c4ccccc4)C(C)=C1C3(C)C)[C@]1(OC(C)=O)CO[C@@H]1C[C@@H]2O [taxol]
HeLa cells
  reduction of migration by taxol: 70–75%
MCF-7 cells
  reduction of migration by taxol: 70–75%
Rama 37 cells
  reduction of migration by taxol: 70–75%
COS-7 S10 cells
  effect on S100P-enhanced migration: suppressed
COS-7 S10 cells; listed as Taxol
  effect on S100P-enhanced migration: completely prevents the S100P-induced stimulation of migration
COS-7 S10 cells; taxol to stabilise MTs or colchicine to dissociate MTs (abstract)
  effect on S100P's stimulation of migration: abolished
Rama 37-T25 cells
  effect on S100P-enhanced migration: suppressed
Cell migration
  effect on cell migration: significantly reduced cell migration in almost all cell types tested
HeLa-A3 cells
  effect on S100P-enhanced migration: suppressed
COS-7 cells; 20 nM taxol, 24 h, COS-7
  reduction of migration by taxol: 70–75%
COS-7 cells; Supplementary Figure S4, COS-7, 24 h
  dose dependence of taxol effect on migration: significantly reduced cell migration in a dose-dependent manner

## RRRQRRKKRG [Tag, 10 amino acid TAT-HA2 tag for cell entry, reference compound]
S100P - α,β-tubulin
  effect on extent of binding of S100P to α,β-tubulin (in words): showed no effect in the binding assay
COS-7 S10 cells; 20 µM tagged peptide, 8 h, doxycycline-induced COS-7 S10 vs uninduced
  S100P-induced fold increase in migration in the presence of peptide: 3.5 fold

## IMNTFSVVPSPKVSDTVVEPYNATL-SVH
S100P - α,β-tubulin
  effect on extent of binding of S100P to α,β-tubulin (in words): showed no such effect
S100P
  affinity for S100P (in words): very weak or nonbinder

B1: S100P (natural protein)
chain: MTELETAMGMIIDVFSRYSGSEGSTQTLTKGELKVLMEKELPGFLQSGKDKDAVDKLLKDLDANGDAQVDFSEFIVFVAAITSACHKYFEKAGLK
αβ-tubulin [1]
  Kd: 120 nM
αβ-tubulin [2]
  Kd: 8300 nM
αβ-tubulin [3]
  Kd: 210 nM
αβ-tubulin [4]
  Kd: 1100 nM
αβ-tubulin [5]
  Kd: 890 nM

B2: Recombinant S100P (natural protein)
chain: MTELETAMGMIIDVFSRYSGSEGSTQTLTKGELKVLMEKELPGFLQSGKDKDAVDKLLKDLDANGDAQVDFSEFIVFVAAITSACHKYFEKAGLK
modifications: 15N-labelled in the NMR experiments
notes: S100P; Used in SPR, gel overlay, NMR and ITC; also called 15N-labelled S100P; source: recombinant, produced as described previously [10]
[6]
  Kd: 100 to 200 nM
[7]
  Kd: 310 nM
[8]
  Kd: 6100 nM
[9]
  Kd: 9000 nM
[10]
  Kd: 62000 nM
  stoichiometry N (peptide:protein): 2
[11]
  Kd: 220 nM
[12]
  S100P-induced fold increase in migration of COS-7 S10 cells (3.4 or 3.5 fold with DMSO or Tag), with 20 µM T-DIC: 1.4 fold
  S100P-induced fold increase in migration of COS-7 S10 cells (3.4 or 3.5 fold with DMSO or Tag), with 20 µM T-DLV: 1.5 fold

## DLVLDRIRKLADQCTGLQGFLVFHSFGGGT [DLV peptide, the 30mer starting with DLV from α-tubulin]
Recombinant S100P [13]
  percent inhibition of the extent of binding of 1 µM S100P to α,β-tubulin at 20 µM peptide: > 50%
Recombinant S100P [14]
  Kd: < 10000 nM
